Consider 13 compounds from ChEMBL document CHEMBL1201862, “PubChem BioAssay data set” (2004).

Among the test systems are 786-0; A498; ACHN; CAKI-1; HCC 2998; MDA-MB-231; MDA-N; MOLT-4; NCI-H226; NCI-H460; OVCAR-8; SF-539; SK-MEL-28; SK-OV-3; SNB-75; MCF7; Malme-3M; PC-3.
Holding throughout (assay): growth of human tumour cells (NCI), 48 h

Structures are written as SMILES.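 Cells were grown in 96-well plates and exposed to each compound for 48 hours at five concentrations; endpoints were interpolated linearly between bracketing concentrations, or set to the highest concentration if not reached. GI50 marks 50% less growth.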 The source made the active and inactive calls. No stated cut-off is given here; in the data, active = GI50 up to about 1.1 µM and inactive = higher.

For `CC(=O)/C(=C/n1c(=S)[nH]c2ccccc21)C(=O)Nc1ccccc1C`, the GI50 in the assay with 786-0, with A498, with ACHN, in the assay on CAKI-1, in the assay with HCC 2998 and in the assay with MDA-MB-231 was > 100 µM (inactive) in each case. For the same compound, the GI50 with MDA-N, in the assay with MOLT-4, with NCI-H226, with NCI-H460, in the assay with OVCAR-8 and in the assay on SF-539 was > 100 µM (inactive) throughout. The GI50 in the assay with SK-MEL-28, in the assay on SK-OV-3 and with SNB-75 was > 100 µM (inactive) each time.
Regarding `CC(C)(C)[Si](C)(C)OCCOCn1cc(F)c(=O)[nH]c1=O`, the GI50 in the assay with 786-0, in the assay with A498, in the assay with ACHN, in the assay with CAKI-1, with MCF7 and in the assay on MDA-N was > 100 µM (inactive) in each case. Moreover, the GI50 in the assay with MOLT-4, with Malme-3M, in the assay on NCI-H226, with NCI-H460, in the assay on OVCAR-8 and in the assay with PC-3 was > 100 µM (inactive) in each case. Besides, the GI50 in the assay on SF-539, with SK-OV-3 and in the assay on SNB-75 was > 100 µM (inactive) each time.
As to `OC1NC2Nc3ccccc3NC2NC1O` (stereo unspecified), the GI50 in the assay with 786-0, with A498, in the assay with ACHN, in the assay with CAKI-1, with HCC 2998 and in the assay with MCF7 was > 100 µM (inactive) each time. Further, the GI50 in the assay on MDA-MB-231, in the assay with MOLT-4, with Malme-3M, with NCI-H226, in the assay with NCI-H460 and in the assay on OVCAR-8 was > 100 µM (inactive) each time. Also, the GI50 in the assay on PC-3, in the assay on SF-539, with SK-MEL-28, with SK-OV-3 and in the assay on SNB-75 was > 100 µM (inactive) each time.
Consider `COc1cc(/C=C2/SC(c3ccccc3)N(Cc3ccccc3)C2=O)cc(OC)c1OC` (stereo unspecified), for which the GI50 with 786-0 is 33.2 µM (inactive); in the assay on A498, 49.1 µM (inactive); in the assay on ACHN it was 44.8 µM (inactive); with CAKI-1 it was > 100 µM (inactive); with HCC 2998 it was 80.5 µM (inactive); in the assay with MCF7, 30.3 µM (inactive). Also, the GI50 in the assay on MDA-MB-231 is > 100 µM (inactive); in the assay on MDA-N it was 29.6 µM (inactive); in the assay on MOLT-4, 14.4 µM (inactive); with Malme-3M, 38.4 µM (inactive); in the assay with NCI-H226, 53.7 µM (inactive); in the assay with NCI-H460 it was 38.2 µM (inactive). Moreover, the GI50 in the assay with OVCAR-8 is 37.7 µM (inactive); in the assay with SK-MEL-28, 47.1 µM (inactive); with SK-OV-3, 41.1 µM (inactive).
Consider `COc1ccc2c(c1)C/C(=C\c1cccc3ccccc13)C2=O`, for which the GI50 in the assay with 786-0 is 15.4 µM (inactive); with A498, 23.4 µM (inactive); in the assay on ACHN, 27.6 µM (inactive); in the assay on CAKI-1, > 100 µM (inactive); in the assay with HCC 2998, 5.04 µM (inactive); in the assay on MCF7, 5.19 µM (inactive). In addition, the GI50 was 4.89 µM (inactive) in the assay on MOLT-4; 10.5 µM (inactive) with NCI-H226; 4.99 µM (inactive) in the assay on NCI-H460; 21.7 µM (inactive) in the assay on OVCAR-8; 16.2 µM (inactive) in the assay on PC-3; 7.33 µM (inactive) in the assay with SF-539. The GI50 is 3.93 µM (inactive) with SK-MEL-28, 16.8 µM (inactive) with SK-OV-3 and 12.4 µM (inactive) in the assay with SNB-75.
Regarding `CN(C)c1ccc(C2ON=C(c3ccccc3)N2C23CC4CC(CC(C4)C2)C3)cc1` (stereo unspecified), the GI50 with 786-0, with A498, with ACHN, in the assay on CAKI-1, with HCC 2998 and in the assay on MDA-MB-231 was > 10 µM (inactive) each time. For the same compound, the GI50 is > 10 µM (inactive) in the assay with MDA-N; 5.87 µM (inactive) in the assay with MOLT-4; > 10 µM (inactive) with Malme-3M; > 10 µM (inactive) in the assay with NCI-H226; > 10 µM (inactive) in the assay with NCI-H460; > 10 µM (inactive) in the assay with OVCAR-8. Besides, the GI50 with PC-3, in the assay with SF-539, with SK-MEL-28, with SK-OV-3 and in the assay on SNB-75 was > 10 µM (inactive) in each case.
For the compound `O=C(Nc1ccc(Cl)c(Cl)c1)OCCN1c2ccccc2Sc2ccccc21`, the GI50 in the assay with 786-0, with ACHN, with CAKI-1, with HCC 2998, with MCF7 and in the assay with MDA-MB-231 was > 10 µM (inactive) in each case. The GI50 in the assay with MDA-N, with MOLT-4, in the assay with Malme-3M, in the assay on OVCAR-8, with PC-3 and with SF-539 was > 10 µM (inactive) each time. The GI50 in the assay with SK-MEL-28, in the assay on SK-OV-3 and with SNB-75 was > 10 µM (inactive) in each case.
For `COc1ccc(-c2c(C#N)c(N)nc3c2CCS(=O)(=O)c2ccccc2-3)cc1`, the GI50 in the assay with 786-0 is 68.2 µM (inactive); with A498, > 100 µM (inactive); with ACHN it was > 100 µM (inactive); in the assay with CAKI-1 it was > 100 µM (inactive); in the assay on HCC 2998, > 100 µM (inactive); with MDA-MB-231, > 100 µM (inactive). The GI50 in the assay with Malme-3M was 44.3 µM (inactive); in the assay with NCI-H226, > 100 µM (inactive); with NCI-H460, > 100 µM (inactive); in the assay on OVCAR-8 it was > 100 µM (inactive); in the assay on PC-3 it was > 100 µM (inactive); in the assay with SK-MEL-28 it was > 100 µM (inactive). Besides, the GI50 in the assay on SNB-75 is 38.5 µM (inactive).
On to `Nc1n2nc(-c3ccccc3)sc2n[n+]1CC(=O)c1ccccc1`, for which the GI50 in the assay with 786-0 was 19.9 µM (inactive); in the assay with A498, 25.1 µM (inactive); in the assay with ACHN, 12.9 µM (inactive); in the assay on CAKI-1 it was 12.3 µM (inactive); in the assay with HCC 2998 it was 12.5 µM (inactive); with MCF7, 5.37 µM (inactive). Besides, the GI50 in the assay with MOLT-4 is 3.66 µM (inactive); with Malme-3M, > 10 µM (inactive); with NCI-H226 it was 16.7 µM (inactive); with NCI-H460, 11.5 µM (inactive); with OVCAR-8 it was 15.1 µM (inactive); in the assay with PC-3, 11 µM (inactive). Also, the GI50 is 6.78 µM (inactive) with SF-539, 25.4 µM (inactive) with SK-MEL-28, 16.7 µM (inactive) with SK-OV-3 and 26.3 µM (inactive) with SNB-75.
As for `Cc1cc2nc(N3C(=O)/C(=C/Cc4ccco4)N=C3c3ccccc3)sc2cc1C`, the GI50 was 27.2 µM (inactive) with 786-0; 26.7 µM (inactive) in the assay with ACHN; 44.4 µM (inactive) in the assay with CAKI-1; 24.6 µM (inactive) in the assay with HCC 2998; 13.4 µM (inactive) in the assay with MCF7; 51.5 µM (inactive) with MDA-MB-231. The GI50 in the assay on MDA-N is 9.98 µM (inactive); in the assay on MOLT-4, 20.3 µM (inactive); with NCI-H460, 23.6 µM (inactive); in the assay on OVCAR-8, 31.6 µM (inactive); in the assay on PC-3, 12.1 µM (inactive); in the assay with SF-539, 41.1 µM (inactive). The GI50 in the assay on SK-MEL-28 is 64.6 µM (inactive); in the assay on SK-OV-3 it was 92 µM (inactive); with SNB-75, 17.7 µM (inactive).
Consider `CC(=O)/N=S(/NC(=O)c1ccc(C)cc1)C(Cl)(Cl)Cl` (stereo unspecified), for which the GI50 with 786-0 is 18 µM (inactive); with ACHN, 41 µM (inactive); in the assay on HCC 2998, 15.1 µM (inactive); in the assay on MCF7 it was 51.9 µM (inactive); with MDA-MB-231, 26.2 µM (inactive); with MDA-N, 55.6 µM (inactive). For the same compound, the GI50 with MOLT-4 was 25.1 µM (inactive); in the assay with Malme-3M, 29.6 µM (inactive); in the assay on NCI-H226, > 100 µM (inactive); with NCI-H460 it was 38.5 µM (inactive); with OVCAR-8 it was 15.6 µM (inactive); with PC-3, > 100 µM (inactive). For the same compound, the GI50 was 77.1 µM (inactive) in the assay with SF-539, 46.7 µM (inactive) in the assay with SK-MEL-28, 70 µM (inactive) in the assay with SK-OV-3 and 45.3 µM (inactive) in the assay with SNB-75.
Turning to `Cc1ccc([S+]([O-])C[C@](NC(=O)OCc2ccccc2)(Sc2ccccc2)C(F)F)cc1` (stereo partly specified), the GI50 in the assay on 786-0 is 13 µM (inactive); with A498, 13.5 µM (inactive); in the assay on ACHN, 20.7 µM (inactive); with CAKI-1, 21.5 µM (inactive); in the assay with HCC 2998, 18.7 µM (inactive); with MDA-MB-231, 19.4 µM (inactive). Moreover, the GI50 in the assay with MOLT-4 is 3.4 µM (inactive); in the assay with Malme-3M it was 21.3 µM (inactive); with NCI-H226 it was 12.9 µM (inactive); in the assay on NCI-H460, 17.9 µM (inactive); with OVCAR-8 it was 19.1 µM (inactive); with PC-3 it was 21.2 µM (inactive). The GI50 with SK-MEL-28 is 18 µM (inactive); in the assay with SK-OV-3, 16.7 µM (inactive); in the assay on SNB-75 it was 13.2 µM (inactive).
As to `C/C(=N\Nc1nc2ccccc2n1C)c1ccncn1`, the GI50 in the assay with 786-0 is 0.08 µM (active); in the assay on A498 it was 0.14 µM (active); in the assay with ACHN, 0.0266 µM (active); with CAKI-1, < 0.01 µM (active); in the assay with HCC 2998 it was 3.39 µM (inactive); with MCF7, 0.0206 µM (active). Further, the GI50 in the assay with MDA-MB-231 was 0.0389 µM (active); with MDA-N, 0.929 µM (active); in the assay with MOLT-4, < 0.01 µM (active); in the assay on Malme-3M, < 0.0385 µM (active); in the assay with NCI-H226 it was 0.29 µM (active); with NCI-H460 it was 0.23 µM (active). Further, the GI50 with OVCAR-8 was < 0.0238 µM (active); with SF-539, 0.313 µM (active); in the assay on SK-MEL-28, 0.0378 µM (active); in the assay on SK-OV-3 it was 0.182 µM (active); in the assay on SNB-75, 1.87 µM (inactive).
